# Assay results as given in patent US7241763B2, “3-furanyl analogs of toxoflavine as kinase inhibitors” (priority 2002, dated 2007).
# pIC50: −log10 of the molar value. Read-outs that look alike come from different tables or passages of the source.
# Legend:
# cdk4 = cdk4 (Homo sapiens, UniProt P11802); experiment: In vitro inhibition of cdk4 using a scintillant proximity assay (CDK4 SPA, Ex. C1); format: biochemical; details: for IC50: GST-pRb substrate, 33P-ATP, room temperature 30 minutes, read-out: CDK4 SPA (Ex. C1): pIC50 values (converted)
# Experimental: In Vitro Inhibition of cdk4 using a Scintillant Proximity Assay
# The scintillant proximity assay (SPA) is in general described in U.S. Pat. No. 4,568,649 (Amersham Pharmacia Biotech). In the present cdk4 SPA kinase reaction assay, a kinase substrate consisting of a fragment of the restinoblastoma protein (pRb) tagged with […] (GST), is incubated with the aforementioned protein in the presence of (^33P) radiolabeled ATP. (^33P) phosporylation of the substrate is subsequently measured as light energy emitted using glutathione-coated SPA beads (Amersham Pharmacia Biotech) by trapping and quantifying the binding of the GST tagged and radiolabeled restinoblastoma protein.
# The CDK4 SPA kinase reaction is performed at room temperature for 30 minutes in a 96-well microtiter plate. For each of the tested compounds a full dose response —10^−5M to 3.10^−9M—has been performed. Flavopiridol was used as reference compound. The 100 μl reaction volume contains 50 mM Hepes, 10 mM NaF, 10 mM MgCl2, 1 mM Na3VO4 pH 7.5, 1.5 μg CDK4-cell lysate/well, 0.2 μM unlabeled ATP, 1.7 μg/well GST-pRb, 1.7 nM AT^33P and 1 μl of a DMSO solution. The reaction is stopped by diluting the reaction mixture ½ with 0.1 mM Na2EDTA, 0.1 mM non-labeled ATP, 0.05% Triton-X-100 and 10 mg/ml glutathion coated beads in PBS. The microtiterplates are centrifuges at 900 rpm for 10 minutes and the amount of phosphorylated (^33P) pRb is determined by counting (1 min/well) in a microtiterplate scintillation counter.
# CDC25B = target: T1, CDC25B (Homo sapiens, UniProt P30305); experiment: In vitro inhibition of CDC25B using the fluorogenic substrate 3-OMFP (CDC25B WT, Ex. C5); format: biochemical; details: for IC50: 3-OMFP substrate, 1 hour room temperature, read-out: CDC25B WT (Ex. C5): pIC50 values (converted)
# T1 sequence (P30305 1-580): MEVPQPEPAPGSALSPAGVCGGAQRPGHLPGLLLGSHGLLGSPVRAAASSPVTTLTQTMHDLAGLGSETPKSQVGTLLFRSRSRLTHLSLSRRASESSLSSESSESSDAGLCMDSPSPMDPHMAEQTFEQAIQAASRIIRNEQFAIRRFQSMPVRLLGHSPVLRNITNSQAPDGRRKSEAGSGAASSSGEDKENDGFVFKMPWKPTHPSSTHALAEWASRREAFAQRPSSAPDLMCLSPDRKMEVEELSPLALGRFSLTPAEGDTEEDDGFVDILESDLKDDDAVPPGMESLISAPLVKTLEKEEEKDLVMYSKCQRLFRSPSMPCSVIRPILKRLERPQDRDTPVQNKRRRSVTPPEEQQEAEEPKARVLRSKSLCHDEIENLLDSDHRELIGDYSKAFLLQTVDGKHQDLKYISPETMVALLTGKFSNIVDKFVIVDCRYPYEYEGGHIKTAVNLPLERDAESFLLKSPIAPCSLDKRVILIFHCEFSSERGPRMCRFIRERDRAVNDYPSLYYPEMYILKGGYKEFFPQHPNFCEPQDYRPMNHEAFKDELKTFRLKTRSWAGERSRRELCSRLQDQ
# Experimental: In Vitro Inhibition of CDC25B using the Fluorogenic Substrate 3-OMFP
# CDC25B phosphatase activity is assessed using the fluorogenic substrate 3-O-methyl-flurorescein-phosphate (3-OMFP). The phosphatase-reaction is performed for 1 hour at room temperature in a black microtiter plate in a volume of 50 μl. The reaction mixture contains 4 μg/mlCDC25B, 15 μM (3-OMFP), 15 mM Tris, 50 mM NaCl, 1 mM DTT, 1 mM Na2EDTA at pH 8.0 and 0.1% DMSO solution at 10^−5 M and the hits are tested in the same conditions in a full dose/response from 10^−5, 3.10^−6, 10^−6 and 3.10^−7 M. The enzymatic activity is determined by measuring the fluorescent signal at 485 nm (ex.) and 538 (em.).
# A2780 cell = experiment: Cytotox/survival of A2780 cell after 3 days; format: cell-based; details: Homo sapiens, read-out: Cytotox/survival of A2780 cell after 3 days - pIC50 values (converted)
# Experimental: In an alternative assay, the growth inhibitory effect of the compounds was tested on the ovarian carcinoma cell line A2780 using art known cytotoxicity assays such as LIVE/DEAD (Molecular Probes) or MTT.
# AKT3 [1] = target: T2, AKT3 (Homo sapiens, UniProt Q9Y243); experiment: In vitro inhibition of AKT3 using a filter assay (AKT3 pep., Ex. C3); format: biochemical; details: for IC50: histone H2B substrate, filter assay, 25° C. 3 hrs, read-out: AKT3 pep. (Ex. C3): pIC50 values (converted)
# Experimental: In Vitro Inhibition of AKT3 using a Filter Assay
# In the present AKT3 filter assay, a kinase substrate consisting of a fragment of histone H2B, is incubated with the aforementioned protein in the presence of (^33P) radiolabeled ATP. The (^33P)phosporylated substrate binds to a phosphocellulose cation exchange filter, that can easily be removed from the incubation mixture and counted using a microplate scintillation counter.
# AKT3 filter assays were performed at 25° C. for 3 hrs in the presence of 25 mM Hepes, pH 7.0, containing 15 mM MgCl2, 1 mM DTT Each assay was performed in a 100 μl reaction volume containing 111 nM AKT3 (diluted in 25 mM Hepes, pH 7.0, containing 15 mM MgCl2, 1 mM DTT) and the 2.5 μM Histone H2B and 2 nM ATP-P^32. The reaction was terminated by addition of 100 μl 75 mM H3PO4, 90 μl of the assay mixture was filtered through Phosphocellulose cation exchange paper. After five times washing with […] H3PO4, the filterpaper was counting in a microtiterplate scintillation counter.
# AKT3 [2] = target: T2, AKT3; experiment: Cellular inhibition of AKT3 using an ELISA (AKT cel, Ex. C6); format: cell-based; design: endogenous in cells; host or cells: MDA-MB 231; details: for IC50: MDA-MB 231 cells, phosphorylated MAPK ELISA, 30 minutes with compound, read-out: AKT cel (Ex. C6): pIC50 values (converted)
# Experimental: Cellular Inhibition of AKT3 using an ELISA
# The human breast adenocarcinoma cell line (MDA-MB 231) was used in an phosphospecific antibody cell ELISA (PACE) to assess the inhibitory effect of the compounds on AKT3 mediated phosphorylation of mitogen-activated protein kinase (MAPK). In the experiments the MDA-MB 231 cells were serum starved for 24 hours (5% CO2; 37° C.). Subsequently, the cells are incubated at room temperature for 2 hours with 20 μM (in serum free medium) of the phosphatidylinositol 3-kinase inhibitor Ly294002 (Alexis, San Diego, Calif.) prior to the incubation for 30 minutes with the compounds at a final concentration ranging from 1 nM to 3 μM. After fixation (with 4.5% formaldehyde) for 20 minutes and washing with PBS (0.1M) the cells were successively incubated with for 5 minutes with 0.1% Triton X-100 in PBS, for 20 minutes with 0.6% H2O2 and 1 hour with a 2% BSA solution as blocking buffer. […] The OD (490–655 nm) reflected the amount of phosphorylated MAPK and the pIC50 of the compounds was based on their effect with respect to blanco (0.1% DMSO) or an internal reference compound treatment.
# [3] = 72 h, A2780 ovarian carcinoma cell line, 3 days
# cdk4, sequence (P11802 whole entry): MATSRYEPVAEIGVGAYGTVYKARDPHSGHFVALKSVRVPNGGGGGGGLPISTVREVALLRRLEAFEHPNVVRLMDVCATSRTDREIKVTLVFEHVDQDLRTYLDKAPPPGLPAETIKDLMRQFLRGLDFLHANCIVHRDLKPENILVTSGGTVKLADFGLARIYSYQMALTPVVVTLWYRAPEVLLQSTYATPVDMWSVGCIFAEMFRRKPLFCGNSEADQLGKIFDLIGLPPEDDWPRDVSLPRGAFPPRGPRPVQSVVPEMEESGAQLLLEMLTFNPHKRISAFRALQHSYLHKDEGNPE
# cdk4, sequence (P24385 whole entry partner): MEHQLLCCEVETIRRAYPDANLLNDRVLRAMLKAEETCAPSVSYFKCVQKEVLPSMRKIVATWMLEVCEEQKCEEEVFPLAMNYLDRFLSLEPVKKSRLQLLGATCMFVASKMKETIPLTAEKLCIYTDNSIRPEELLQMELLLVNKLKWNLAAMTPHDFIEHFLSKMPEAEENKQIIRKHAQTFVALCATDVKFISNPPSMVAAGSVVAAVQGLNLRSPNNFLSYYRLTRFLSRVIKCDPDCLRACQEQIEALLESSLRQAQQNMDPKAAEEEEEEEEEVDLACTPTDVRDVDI
# T2 sequence (Q9Y243 whole entry): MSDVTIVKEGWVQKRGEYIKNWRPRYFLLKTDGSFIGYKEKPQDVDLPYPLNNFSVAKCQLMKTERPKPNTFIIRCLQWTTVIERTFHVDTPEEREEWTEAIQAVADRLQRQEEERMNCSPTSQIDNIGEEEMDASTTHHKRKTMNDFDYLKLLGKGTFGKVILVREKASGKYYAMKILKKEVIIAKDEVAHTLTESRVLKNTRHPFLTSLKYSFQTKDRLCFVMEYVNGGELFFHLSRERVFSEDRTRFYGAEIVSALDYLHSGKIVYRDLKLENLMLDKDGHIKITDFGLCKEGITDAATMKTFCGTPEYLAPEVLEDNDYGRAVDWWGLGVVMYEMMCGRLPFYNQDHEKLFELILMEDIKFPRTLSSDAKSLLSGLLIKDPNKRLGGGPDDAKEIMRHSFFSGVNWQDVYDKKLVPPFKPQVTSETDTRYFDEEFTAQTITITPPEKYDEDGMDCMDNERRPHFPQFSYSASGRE
Structure (SMILES),pIC50 (cdk4),melting point [°C],pIC50 (CDC25B),"IC50 (A2780 cell; A2780, 72 h) [µM]",pIC50 (AKT3 [1]),pIC50 (AKT3 [2]),IC50 (cdk4) [µM],IC50 (CDC25B) [µM],IC50 (A2780 cell; [3]) [µM],IC50 (AKT3 [1]) [µM],IC50 (AKT3 [2]) [µM]
Cn1c(=O)nc2n(C3CCCC3)nc(-c3ccc(-c4ccc(OCCN5CCOCC5)cc4)o3)nc-2c1=O [Compound 117],6.54,173,7.72,0.178,7.31,6.09,–,–,–,–,–
CN1CCN(C(=O)COc2ccc(-c3ccc(-c4nc5c(=O)n(C)c(=O)nc-5n(C5CCCC5)n4)o3)cc2)CC1 [Compound 119],–,252,–,–,–,–,0.129,0.0176,0.0481,0.054,0.47
Cn1c(=O)nc2n(C3CCCC3)nc(-c3ccc(-c4ccc(CN5CCN(CCOCCO)CC5)cc4)o3)nc-2c1=O [Compound 121],–,> 250,–,–,–,–,0.161,0.012,0.137,0.0573,0.406
Cn1c(=O)nc2n(C3CCCC3)nc(-c3ccc(-c4ccc(CNCc5cccnc5)cc4)o3)nc-2c1=O [Compound 122],–,205,–,–,–,–,0.091,0.014,0.0705,0.0309,0.123
Cn1c(=O)nc2n(C3CCCC3)nc(-c3ccc(-c4ccc(CNC(CO)(CO)CO)cc4)o3)nc-2c1=O [Compound 126],–,241,–,–,–,–,0.0783,0.0938,1.11,0.0802,0.272
Cn1c(=O)nc2n(C3CCCC3)nc(-c3ccc(-c4ccc(CN5CCCC5)cc4)o3)nc-2c1=O [Compound 131],–,218,–,–,–,–,0.0519,0.0186,0.0617,0.0914,0.0718
COC1CCN(Cc2ccc(-c3ccc(-c4nc5c(=O)n(C)c(=O)nc-5n(C5CCCC5)n4)o3)cc2)CC1 [Compound 132],–,220,–,–,–,–,0.0785,0.0202,0.0877,0.047,0.0583
COCCN1CCN(Cc2ccc(-c3ccc(-c4nc5c(=O)n(C)c(=O)nc-5n(C5CCCC5)n4)o3)cc2)CC1 [Compound 133],–,186,–,–,–,–,0.112,0.0116,0.119,0.061,0.0678
Cn1c(=O)nc2n(C3CCCC3)nc(-c3ccc(-c4ccc(CN(CCO)CCO)cc4)o3)nc-2c1=O [Compound 134],–,242,–,–,–,–,0.111,0.0129,0.0527,0.0598,0.0392
